How the values were obtained:
Assay in all cases: Bliss interaction score (quartile over a dose matrix) (fitness difference); higher = more antagonism (negative = synergy)
B. subtilis 168 = tested on: B. subtilis 168
Method in brief: (§1)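 The Bliss score takes observed fitness and subtracts the expected fitness, calculated as a product of single-drug fitness values. Those single-drug values were inferred from the combination data. Fitness is OD595 at entry into stationary phase divided by the plate's robust no-drug mean, capped at 1, and the score is summarised by quartiles across technical, biological and donor/recipient replicates.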

S. aureus DSM 20231 = tested on: S. aureus DSM 20231
Method in brief: as §1

S. aureus Newman = tested on: S. aureus Newman
Method in brief: as §1

S. pneumoniae D39V = tested on: S. pneumoniae D39V
Method in brief: as §1
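Further: first quartile when negative (synergy) and third quartile when positive (antagonism).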

SMILES | Bliss interaction score (B. subtilis 168) | Bliss interaction score (S. aureus DSM 20231) | Bliss interaction score (S. aureus Newman) | Bliss interaction score (S. pneumoniae D39V) | Bliss interaction score (B. subtilis 168; main component drawn) | Bliss interaction score (S. aureus DSM 20231; main component drawn) | Bliss interaction score (S. aureus Newman; main component drawn) | Bliss interaction score (S. pneumoniae D39V; main component drawn)
Cc1ncc([N+](=O)[O-])n1CCO [Metronidazole] + Clc1ccc(COC(Cn2ccnc2)c2ccc(Cl)cc2Cl)c(Cl)c1 [Miconazole] | 0.0471 | 0.0327 | 0.0522 | 0.0478 | – | – | – | –
CC(=O)Oc1ccccc1C(=O)O [Acetylsalicylicacid] + O=C(O[C@@H]1Cc2c(O)cc(O)cc2O[C@@H]1c1cc(O)c(O)c(O)c1)c1cc(O)c(O)c(O)c1 [EGCG] | 0.141 | 0.159 | 0.0426 | -0.0702 | – | – | – | –
N#CC(C#N)=NNc1cccc(Cl)c1 [CCCP] + N[C@@H]1CONC1=O [CycloserineD] | 0.0617 | -0.0883 | -0.0487 | 0.102 | – | – | – | –
N#CC(C#N)=NNc1cccc(Cl)c1 [CCCP] + CN[C@@H]1[C@H](O)[C@H](NC)[C@H]2O[C@@]3(O)C(=O)C[C@@H](C)O[C@H]3O[C@@H]2[C@H]1O [Spectinomycin] | 0.0317 | 0.0771 | -0.0505 | 0.0475 | – | – | – | –
CC1(C)S[C@@H]2[C@H](NC(=O)Cc3ccccc3)C(=O)N2[C@H]1C(=O)O [PenicillinG] + CN1C2=CC=CC=C2N=C3C1=CC=CC3=O [Pyocyanin] | -0.0227 | 0.0541 | 0.0699 | 0.144 | – | – | – | –
CC(=O)Oc1ccccc1C(=O)O [Acetylsalicylicacid] + C/C(=C\C(=O)OCCCCCCCCC(=O)O)C[C@@H]1OC[C@H](C[C@@H]2O[C@H]2[C@@H](C)[C@H](C)O)[C@@H](O)[C@H]1O [Pseudomonic acid] | -0.2 | -0.0241 | -0.0211 | -0.0974 | – | – | – | –
CN(C)[C@@H]1C(O)=C(C(N)=O)C(=O)[C@@]2(O)C(O)=C3C(=O)c4c(O)ccc(Cl)c4[C@@](C)(O)[C@H]3C[C@@H]12 [Clortetracycline] + CO[C@@H]1[C@@H](OC(N)=O)[C@@H](O)[C@H](Oc2ccc3c(O)c(NC(=O)c4ccc(O)c(CC=C(C)C)c4)c(=O)oc3c2C)OC1(C)C [Novobiocin] | 0.0909 | 0.104 | 0.0791 | 0.192 | – | – | – | –
CC(=O)Oc1ccccc1C(=O)O [Acetylsalicylicacid] + CC1=C(C(=O)O)N2C(=O)[C@@H](NC(=O)[C@H](N)c3ccccc3)[C@H]2SC1 [Cephalexin] | 0.108 | 0.0849 | 0.0494 | 0.241 | – | – | – | –
Cc1ncc([N+](=O)[O-])n1CCO [Metronidazole] + CO[C@@]12[C@H](COC(N)=O)C3=C(C(=O)C(C)=C(N)C3=O)N1C[C@@H]1N[C@@H]12 [MitomycinC] | 0.132 | 0.0443 | 0.0511 | 0.0827 | – | – | – | –
CC(=O)Oc1ccccc1C(=O)O [Acetylsalicylicacid] + Clc1ccc(COC(Cn2ccnc2)c2ccc(Cl)cc2Cl)c(Cl)c1 [Miconazole] | 0.0955 | 0.0658 | 0.0722 | -0.0711 | – | – | – | –
N#CC(C#N)=NNc1cccc(Cl)c1 [CCCP] + CCCCCCCCCC(=O)N[C@@H]1[C@H]([C@@H]([C@H](O[C@H]1OC2=C3C=C4C=C2OC5=C(C=C(C=C5)[C@H]([C@H]6C(=O)N[C@@H](C7=C(C(=CC(=C7)O)OC8[C@H]([C@H]([C@@H]([C@H](O8)CO)O)O)O)C9=C(C=CC(=C9)[C@H](C(=O)N6)NC(=O)[C@@H]4NC(=O)[C@@H]1C2=CC(=CC(=C2)OC2=C(C=CC(=C2)[C@H](C(=O)N[C@H](CC2=CC(=C(O3)C=C2)Cl)C(=O)N1)N)O)O)O)C(=O)O)O[C@H]1[C@@H]([C@H]([C@@H]([C@H](O1)CO)O)O)NC(=O)C)Cl)CO)O)O [Teicoplanin] | – | – | – | – | 0.17 | 0.0772 | -0.0483 | 0.096
N#CC(C#N)=NNc1cccc(Cl)c1 [CCCP] + CC1=C\[C@@H](O)CC(=O)Cc2nc(co2)C(=O)N2CCC=C2C(=O)O[C@H](C(C)C)[C@H](C)/C=C/C(=O)NC\C=C\1 [Virginiamycin M1] | -0.0262 | 0.0407 | -0.0388 | 0.0981 | – | – | – | –
COc1cccc2c1C(=O)c1c(O)c3c(c(O)c1C2=O)C[C@@](O)(C(=O)CO)C[C@@H]3O[C@H]1C[C@H](N)[C@H](O)[C@H](C)O1 [Doxorubicin] + CN[C@H](CC(C)C)C(=O)N[C@H]1C(=O)N[C@@H](CC(N)=O)C(=O)N[C@H]2C(=O)N[C@H]3C(=O)N[C@H](C(=O)N[C@H](C(=O)O)c4cc(O)cc(O)c4-c4cc3ccc4O)[C@H](O[C@H]3C[C@](C)(N)[C@@H](O)[C@H](C)O3)c3ccc(c(Cl)c3)Oc3cc2cc(c3O[C@@H]2O[C@H](CO)[C@@H](O)[C@H](O)[C@H]2O[C@H]2C[C@](C)(NCc3ccc(-c4ccc(Cl)cc4)cc3)[C@@H](O)[C@H](C)O2)Oc2ccc(cc2Cl)[C@H]1O [Oritavancin] | -0.0288 | 0.0678 | 0.114 | 0.0571 | – | – | – | –
O=C(O)c1cn(C2CC2)c2cc(N3CCNCC3)c(F)cc2c1=O [Ciprofloxacin] + CO[C@@]12[C@H](COC(N)=O)C3=C(C(=O)C(C)=C(N)C3=O)N1C[C@@H]1N[C@@H]12 [MitomycinC] | -0.108 | -0.057 | 0.0577 | -0.111 | – | – | – | –
CO/N=C(\C(=O)N[C@@H]1C(=O)N2C(C(=O)O)=C(COC(C)=O)CS[C@H]12)c1csc(N)n1 [Cefotaxime] + O=C(N[C@H](CO)[C@H](O)c1ccc([N+](=O)[O-])cc1)C(Cl)Cl [Chloramphenicol] | -0.0771 | 0.106 | -0.0902 | 0.158 | – | – | – | –
